Consider one substance from patent US11154569B2, “Ruthenium μ-nitrido complexes and their use as calcium uptake inhibitors” (CORNELL UNIVERSITY, priority 2018, dated 2021).

Assay [1] has as its target T1, mitochondrial calcium uniporter (MCU) (Homo sapiens, UniProt Q8NE86).
T1 sequence (Q8NE86 51-351): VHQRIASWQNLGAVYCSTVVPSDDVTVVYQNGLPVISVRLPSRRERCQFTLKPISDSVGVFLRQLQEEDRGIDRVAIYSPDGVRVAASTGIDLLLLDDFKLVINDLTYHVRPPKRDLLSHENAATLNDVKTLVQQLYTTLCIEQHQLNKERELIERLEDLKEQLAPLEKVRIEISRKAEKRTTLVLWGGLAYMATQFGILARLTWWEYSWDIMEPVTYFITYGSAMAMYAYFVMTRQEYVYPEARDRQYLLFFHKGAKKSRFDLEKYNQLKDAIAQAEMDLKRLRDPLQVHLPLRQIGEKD
T1 sequence (Q9H4I9 48-107 partner limits assumed): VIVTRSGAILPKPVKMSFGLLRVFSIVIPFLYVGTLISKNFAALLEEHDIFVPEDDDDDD
Put plainly: MCU-mediated Ca2+ uptake and ΔΨm in permeabilized HEK293T cells. As to conditions: 5 μM compound, 20 μM Ca2+ bolus. More on the design: endogenous in cells; host or cells: HEK293T (digitonin-permeabilized). The class given is cell-based. As to the method:
An equal number of IHEK293T (6×10^6 cells) were washed in Ca^2+ free PBS, pH 7.4, resuspended and permeabilized with 40 μg/ml digitonin in 1.5 ml of intracellular medium (ICM) composed of 120 mM KCl, 10 mM NaCl, 1 mM K—H2PO4, 20 mM HE PES-Tris, pH 7.2 and 2 μM thapsigargin to block the SERCA pump. All measurements were performed in the presence of 2 mM succinate. The permeabilized cells were loaded with JC-1 (800 nM) and Fura2-FF (0.5 μM), respectively. Fluorescence was monitored in a multi-wavelength excitation dual-wavelength emission fluorimeter. [Ca^2+]out is represented as the excitation ratio (340 nm/380 nm) of Fura2-FF/FA fluorescence and ΔΨm as the ratio of the fluorescence of J-aggregate (570 nm excitation/595 nm emission) and monomer (490 nm excitation/535 nm emission) forms of JC-1. A series of extra-mitochondrial Ca^2+ bolus (20 μM) was added and mitochondrial uncoupler, CCCP (2 jμM), were added at the indicated time points. All of the experiments were performed at 37° C. with constant stirring.
With the new nitrido-bridged ruthenium compounds C-2 and C-3 prepared, MCU-inhibitory properties of these compounds were evaluated and their activities compared to C-1, the oxo-bridged Ru360 analogue of the conventional art (S. R. Nathan et al., Inorg. Chem. 2017, 56, 3123-3126 and S. R. Nathan et al., J. Vis. Exp. 2017, 56527). The cytotoxicity of the complexes in HEK293 cells was first measured using the colorimetric thiazolyl blue tetrazolium bromide (MTT) assay, as well known in the art. […] To measure the effect of these compounds on MCU activity, permeabilized HEK293T cells were treated with commercially available Ru360, C-1, C-2, or C-3 (5 jμM) 200 seconds prior to the delivery of a 20 μM bolus of Ca^2+ in the presence of 2 mM succinate as an energy source and the sarco/endoplasmic reticulum Ca^2+-ATPase (SERCA) pump blocker thapsigargin to prevent ER Ca^2+ uptake (S. Shanmughapriya et al., Sci. Signal. 2015, 8, ra23).
FIGS. 2A-2C are graphs showing changes in mitochondrial membrane potential (ΔΨm, JC-1, top panel) and extramitochondrial Ca^2+([Ca^2+]out) clearance (Fura-2 FF, bottom panel) in digitonin permeabilized HEK293T cells in response to 20 μM of Ca^2+ after treatment with 5 μM of C-1 (FIG. 2A), C-2 (FIG. 2B), and C-3 (FIG. 2C). The transient drop in ΔΨm in control cells upon Ca^2+ addition indicates accumulation of Ca^2+ in the mitochondrial matrix. FIG. 2D is a graph quantifying the rate of [Ca^2+] uptake as a function of decrease in [Ca^2+]out after a […] Ca^2+ pulse. […] Additionally, ΔΨm was monitored using 5,5′,6,6′-tetrachloro-1,1′,3,3′-tetraethylbenzimidazolylcarbocyanine iodide (JC-1) dye (M. Reen et al., Biochemistry 1991, 30, 4480-4486).
Having identified (C-2 as a cell-permeable MCU inhibitor, a dose-response analysis was performed to determine the potency of C-2 towards mCa^2+ uptake inhibition of C-2 in a permeabilized cell system. Permeabilized IHEK293T cells were treated with C-2 (1 nM to 1 μM). A 20 μM Ca^2+ bolus was added after baseline recording, and the extra-mitochondrial calcium cleared was used as an indicator for MCU-mediated mCa^2+ uptake using Fura-2FF. The results are shown in FIGS. 4A-4C. FIG. 4A includes representative traces of [Ca^2+]out clearance in permeabilized HEK293T cells challenged with a range of C-2 concentrations (1, 2, 3, 5, and 10 nM). FIG. 4B is a graph comparing MCU-inhibitory effect by Ru360 (30 nM) and C-2 (2 and 10 nM) at lower concentrations. FIG. 4C is a graph showing calculation of dose-dependent IC50 inhibition by C-2 and Ru360. Data represent mean±SEM (n=3-6), n.s.=not significant. […] Furthermore, complete inhibition of mCa^2+ uptake was observed when cells were dosed with 10 nM C-2 while 500 nM of Ru360 was required for the same response (FIGS. 4A and 4B).

Assay [2] concerns the target T1, mitochondrial calcium uniporter (MCU). Put plainly: Cytoplasmic and mitochondrial Ca2+ dynamics in intact HeLa cells after histamine. The class given is cell-based. The arrangement: 30 min) and Rhod-2 AM; endogenous in cells; host or cells: HeLa (intact; some experiments with transfected Ca2+ sensors R-GECO1 and GCamP6-mt, MCU itself not transfected). As to conditions: intact HeLa cells, 50 μM for 30 minutes, histamine 100 μM; Rhod-2 AM and GCamP6-mt. On the procedure: HeLa cells were loaded with Fluo-4-AM (5 μM; 30 min) and Rhod-2 AM (2 μM; 50 min) in extracellular medium as previously described (F. Perocchi et al, Nature 2010, 467, 291-296). Coverslips were mounted in an open perfusion microincubator at 37° C. and imaged. After 1 minute of baseline recording, histamine (100 μM) was added, and confocal images were recorded every 3 seconds at 488 and 561 nm excitation using a 40× oil objective. Images were analyzed and quantified by using ImageJ (NIH).
HeLa cells were transiently transfected with genetically encoded cytosolic and mitochondrial targeted Ca^2+ sensors R-GECO1 and GCamP6-mt plasmids. After 48 hours, the transfected cells were treated with MCU inhibitors (C1, C-2, and C-3; 50 μM). After 1 minute of baseline recording, histamine (100 μM) was added, and the change of R-GECO1 and GCamP6-mt fluorescence was measured with 488-nm and 561-nm excitation on a confocal microscope equipped with a 40× oil objective. Images were analyzed and quantified by using ImageJ (NIH).
Encouraged by the high cell permeability and mitochondrial selectivity of C-2, the capability of this complex to inhibit MCU-mediated mCa^2+ uptake in intact, non-permeabilized cells was investigated Briefly, HeLa cells were loaded with the cytosolic calcium concentration ([Ca^2+]) indicator Fluo-4 AM and the mitochondrial calcium concentration ([…]) indicator Rhod-2 AM in the presence or absence of C-1, C-2, and C-3 (50 μM). Cells were stimulated with the GPCR agonist histamine (100 μM) to rapidly elevate cCa^2+ levels to induce mCa^2+ uptake (Z. Dong et al., Mol. Cell 2017, 65, 1014-1028).
FIGS. 3A and 3B are graphs showing results of cytosolic ([Ca^2+]e, Fluo-4 AM) and mitochondrial ([Ca^2+]m, Rhod-2 AM) calcium transients in HeLa cells after treatment with histamine (100 μM) that were pretreated with or without C-1, C-2, or C-3 (50 μM) for 30 minutes. FIGS. 3C and 3D are graphs showing results of cytosolic ([Ca^2+]e, R-GECO) and mitochondrial ([Ca^2+]m, GCamP6-mt)) calcium transients in HeLa cells after treatment with histamine (100 μM) that were pretreated with or without C-1, C-2, or C-3 (50 μM) for 30 minutes. HeLa cells were co-transfected with R-GECO1 and GCamP6-mt. 48 hours post-transfection. Data are represented as mean±SEM. *p<0.05. n=3-6.

Consider “[Ru2(μ-O)(NH3)8(H2O)2]^+5 [C-1, reference compound]”, for which, in assay [1] (digitonin permeabilized HEK293T cells), the “MCU mediated mCa2+ uptake” value is on record as “significant reduction in MCU mediated mCa^2+ uptake”. Further, the “transient ΔΨm loss (JC-1)” value in assay [1] (permeabilized HEK293T cells) is “no transient A m loss”. Further, the “inhibition of MCU-mediated mCa2+ uptake in intact cells” value in assay [2] is given as “did not show appreciable inhibition of mCa^2+ uptake”.
